34 compounds from patent publication US20220235065A1 (Epizyme, Inc., priority 2016, published 2022) can be followed below.

Usually IC50 stands for the concentration needed to halve the response being measured.

For assay [1], the target named is T1, recombinant purified human EHMT2 913-1193 (Homo sapiens, UniProt Q96KQ7).
T1 construct: Recombinant purified human EHMT2 913-1193 (55 μM) synthesized by Viva was used for all experiments; purchased Viva
T1 sequence (Q96KQ7 913-1193): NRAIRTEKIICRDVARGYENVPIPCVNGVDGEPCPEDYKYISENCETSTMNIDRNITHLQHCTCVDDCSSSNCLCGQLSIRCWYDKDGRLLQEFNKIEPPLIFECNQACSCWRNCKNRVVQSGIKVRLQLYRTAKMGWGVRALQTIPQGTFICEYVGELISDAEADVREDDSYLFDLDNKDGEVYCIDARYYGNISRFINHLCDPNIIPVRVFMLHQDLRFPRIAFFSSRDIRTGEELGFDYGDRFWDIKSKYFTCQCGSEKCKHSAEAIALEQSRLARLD
Kind of assay: EHMT2 enzyme assay on histone peptide substrate (3H-SAM Flashplate). The settings on record: read-out: EHMT2 PEP (IC50 μM). It is filed as biochemical. Summed up:
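Compounds (10-point 3-fold series, top 50 μM final, 2% DMSO) preincubated 30 min with 0.031 nM EHMT2 in 20 mM Bicine pH 7.5, 1 mM TCEP; reaction started with 3H-SAM and biotinylated H3 1-15 peptide, both at Km, run 60 min at room temperature. Flashplate capture; IC50 from four-parameter fit, triplicates.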

The target of a further assay is T2, EHMT1 (Homo sapiens, UniProt Q9H9B1).
T2 sequence (Q9H9B1 1-1298): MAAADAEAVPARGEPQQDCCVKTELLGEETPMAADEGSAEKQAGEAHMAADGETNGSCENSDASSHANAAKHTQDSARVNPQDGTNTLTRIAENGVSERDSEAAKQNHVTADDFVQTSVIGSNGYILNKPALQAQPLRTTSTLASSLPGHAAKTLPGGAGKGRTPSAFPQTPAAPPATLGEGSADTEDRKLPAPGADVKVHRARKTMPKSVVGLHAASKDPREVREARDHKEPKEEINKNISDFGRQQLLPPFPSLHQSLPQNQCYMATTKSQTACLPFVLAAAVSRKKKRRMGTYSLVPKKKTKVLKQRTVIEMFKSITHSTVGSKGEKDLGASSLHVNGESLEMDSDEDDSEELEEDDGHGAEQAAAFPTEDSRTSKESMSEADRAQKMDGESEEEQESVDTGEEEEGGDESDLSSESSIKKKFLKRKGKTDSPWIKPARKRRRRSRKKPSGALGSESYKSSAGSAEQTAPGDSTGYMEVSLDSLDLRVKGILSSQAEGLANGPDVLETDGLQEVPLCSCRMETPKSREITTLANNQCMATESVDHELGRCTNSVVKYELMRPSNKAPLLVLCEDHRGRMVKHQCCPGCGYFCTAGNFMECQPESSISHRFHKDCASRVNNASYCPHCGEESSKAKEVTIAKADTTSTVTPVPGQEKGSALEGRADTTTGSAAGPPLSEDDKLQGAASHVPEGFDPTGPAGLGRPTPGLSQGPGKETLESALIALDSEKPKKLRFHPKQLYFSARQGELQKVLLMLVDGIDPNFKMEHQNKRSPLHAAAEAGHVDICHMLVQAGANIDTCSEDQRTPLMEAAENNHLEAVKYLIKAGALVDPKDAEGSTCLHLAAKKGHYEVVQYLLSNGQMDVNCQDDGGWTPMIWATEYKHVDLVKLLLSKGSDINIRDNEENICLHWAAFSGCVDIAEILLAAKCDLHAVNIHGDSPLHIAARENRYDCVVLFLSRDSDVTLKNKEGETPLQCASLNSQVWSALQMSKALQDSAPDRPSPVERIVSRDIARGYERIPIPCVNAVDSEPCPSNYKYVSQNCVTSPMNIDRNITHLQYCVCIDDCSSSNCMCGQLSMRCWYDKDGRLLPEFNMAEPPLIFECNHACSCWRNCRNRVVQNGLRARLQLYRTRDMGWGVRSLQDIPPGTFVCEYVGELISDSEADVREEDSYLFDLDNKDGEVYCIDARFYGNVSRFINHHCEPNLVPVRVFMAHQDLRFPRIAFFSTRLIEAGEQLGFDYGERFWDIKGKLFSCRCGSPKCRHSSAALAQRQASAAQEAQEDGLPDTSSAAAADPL
Put plainly: EHMT1 PEP (EHMT1 peptide enzyme assay). It counts as biochemical. The following applies: peptide substrate enzyme assay.

Counter-ions that a name gives are not always drawn.

With `CNc1cc(C)nc(Nc2ccc(OC)c(-c3cc(C4CC4)on3)c2)n1` [Compound 13], the results for the half-maximal inhibitory concentration (IC50) (in assay [1]; at EHMT1) were 1 to 10 µM and 0.1 to 1 µM, respectively.
Taken in the same sequence, the figures for `CNc1cc(C)nc(Nc2ccc(OC)c(-n3cc(C4CC4)cn3)c2)n1` [Compound 14, 2-N-[3-(4-cyclopropyl-1H-pyrazol-1-yl)-4-methoxyphenyl]-4-N,6-dimethylpyrimidine-2,4-diamine] were 1 to 10 µM and 0.1 to 1 µM.
Turning to `CNc1cc(C)nc(Nc2ccc(OC)c(-n3cccn3)c2)n1` [Compound 15, 2-N-[4-methoxy-3-(1H-pyrazol-1-yl)phenyl]-4-N,6-dimethylpyrimidine-2,4-diamine; trifluoroacetic acid], the IC50 (in assay [1]; on EHMT1) was greater than 10 µM each time.
For `CNc1cc(C)nc(Nc2cnc(OC)c(-n3ncc4c3CCNC4)c2)n1` [Compound 19], the half-maximal inhibitory concentration (IC50) (in assay [1]; against EHMT1) was 1 to 10 µM each time.
For `CNc1cc(C)nc(Nc2ccc(OC)c(-c3nnc4n3CCNC4)c2)n1` [Compound 21], the concentration for half-maximal inhibition (IC50) (in assay [1]; at EHMT1) was greater than 10 µM throughout.
Take `CNc1cc(C)nc(Nc2ccc(OC)c(-n3cc4c(n3)CNCC4)c2)n1` [Compound 22, 2-N-(4-methoxy-3-[2H,4H,5H,6H,7H-pyrazolo[3,4-c]pyridin-2-yl]phenyl)-4-N,6-dimethylpyrimidine-2,4-diamine hydrochloride]: the IC50 was greater than 10 µM in assay [1] and 1 to 10 µM against EHMT1.
For the compound `CNc1cc(C)nc(Nc2ccc(OC)c(-n3cc(CN)cn3)c2)n1` [Compound 23, 2-N-[3-[4-(aminomethyl)-1H-pyrazol-1-yl]-4-methoxyphenyl]-4-N,6-dimethylpyrimidine-2,4-diamine; trifluoroacetic acid], the IC50 (in assay [1]; against EHMT1) was less than 0.1 µM in each case.
Turning to `CNc1cc(C)nc(Nc2ccc(OC)c(-n3nccc3CN)c2)n1` [Compound 24], the IC50 (in assay [1]; at EHMT1) was 1 to 10 µM each time.
As for `CNc1cc(C)nc(Nc2ccc(OC)c(-n3ncc4c3CCCC4)c2)n1` [Compound 26, 2-N-[4-methoxy-3-(4,5,6,7-tetrahydro-1H-indazol-1-yl)phenyl]-4-N,6-dimethylpyrimidine-2,4-diamine trifluoroacetic acid], the half-inhibitory concentration (IC50) in assay [1] is greater than 10 µM; against EHMT1, 1 to 10 µM.
For `CNc1nc(Nc2ccc(OC)c(-n3cc4c(n3)CCNC4)c2)nc(C)c1F` [Compound 27, 5-fluoro-2-N-(4-methoxy-3-[2H,4H,5H,6H,7H-pyrazolo[4,3-c]pyridin-2-yl]phenyl)-4-N,6-dimethylpyrimidine-2,4-diamine trifluoroacetic acid], the IC50 (in assay [1]; against EHMT1) was 0.1 to 1 µM throughout.
As to `CNc1nc(Nc2ccc(OC)c(-n3ncc4c3CCNC4)c2)nc(C)c1F` [Compound 28, 5-fluoro-2-N-(4-methoxy-3-[1H,4H,5H,6H,7H-pyrazolo[4,3-c]pyridin-1-yl]phenyl)-4-N,6-dimethylpyrimidine-2,4-diamine trifluoroacetic acid], the IC50 (in assay [1]; against EHMT1) was 1 to 10 µM each time.
As to `CNc1cc(C)nc(Nc2ccc(OC)c(-c3c(C)nc4n3CCNC4)c2)n1` [Compound 30], the IC50 (in assay [1]; on EHMT1) was greater than 10 µM each time.
Turning to `CNc1cc(C)nc(Nc2ccc(OC)c(-c3nnc4n3CCN(C)C4)c2)n1` [Compound 31], the half-maximal inhibitory concentration (IC50) (in assay [1]; against EHMT1) was greater than 10 µM throughout.
On to `CNc1cc(C)nc(Nc2ccc(OC)c(-n3ncc4c3CCCN4)c2)n1` [Compound 32], for which the 50% inhibitory concentration (IC50) (in assay [1]; on EHMT1) was greater than 10 µM throughout.
On to `CNc1cc(C)nc(Nc2ccc(OC)c(-c3cccc4[nH]ccc34)c2)n1` [Compound 33, 2-N-[3-(1H-indol-4-yl)-4-methoxyphenyl]-4-N,6-dimethylpyrimidine-2,4-diamine hydrochloride], for which the IC50 (in assay [1]; on EHMT1) was greater than 10 µM in each case.
With `CNc1cc(C)nc(Nc2ccc(OC)c(-n3ncc4cnccc43)c2)n1` [Compound 35, 2-N-(4-methoxy-3-[1H-pyrazolo[4,3-c]pyridin-1-yl]phenyl)-4-N,6-dimethylpyrimidine-2,4-diamine; trifluoroacetic acid], the IC50 (in assay [1]; at EHMT1) was 1 to 10 µM each time.
As to `CNc1cc(C)nc(Nc2ccc(OC)c(-n3ncc4ccncc43)c2)n1` [Compound 36], the values for the IC50 (in assay [1]; against EHMT1) were greater than 10 µM and 1 to 10 µM, respectively.
For the compound `CNc1cc(C)nc(Nc2ccc(OC)c(-c3cccc4[nH]ncc34)c2)n1` [Compound 37, 2-N-[3-(1H-indazol-4-yl)-4-methoxyphenyl]-4-N,6-dimethylpyrimidine-2,4-diamine; trifluoroacetic acid], the IC50 (in assay [1]; against EHMT1) was greater than 10 µM in each case.
As for `CNc1cc(C)nc(Nc2ccc(OC)c(-c3nc4cnccn4n3)c2)n1` [Compound 38], the values for the IC50 (in assay [1]; on EHMT1) were greater than 10 µM and 1 to 10 µM, respectively.
Turning to `CNc1cc(C)nc(Nc2ccc(OC)c(-c3c(C)nc4cnccn34)c2)n1` [Compound 39], the IC50 (in assay [1]; on EHMT1) was greater than 10 µM throughout.
As for `CCc1ccc(Nc2nc(C)cc(NC)n2)cc1C(=O)Nc1cccnc1` [Compound 244], the IC50 (in assay [1]; at EHMT1) was greater than 10 µM each time.
As for `CNc1cc(C)nc(Nc2ccc(Cl)c(C(=O)Nc3ccnnc3)c2)n1` [Compound 245], the IC50 (in assay [1]; on EHMT1) was greater than 10 µM in each case.
For the compound `CNc1cc(C)nc(Nc2ccc(Cl)c(C(=O)Nc3nccs3)c2)n1` [Compound 246], the IC50 lay in the range of 1 to 10 µM in assay [1] and 0.1 to 1 µM against EHMT1.
Regarding `Cc1cc(NC2CCNCC2)ncc1-c1cc2[nH]ccc2cn1` [Compound 247], the concentration for half-maximal inhibition (IC50) (in assay [1]; against EHMT1) was 1 to 10 µM throughout.
For the compound `CNc1cc(C)nc(Nc2ccc(Cl)c(C(=O)Nc3cnccn3)c2)n1` [Compound 251], the concentration for half-maximal inhibition (IC50) in assay [1] was 1 to 10 µM; against EHMT1, 0.1 to 1 µM.
As for `CNc1cc(C)nc(Nc2ccc(Cl)c(-c3cc4[nH]ccc4cn3)c2)n1` [Compound 255], the IC50 (in assay [1]; against EHMT1) was less than 0.1 µM each time.
Consider `CNc1cc(C)nc(Nc2ccc(C)c(-c3cc4[nH]ccc4cn3)c2)n1` [Compound 256], for which the IC50 (in assay [1]; against EHMT1) was less than 0.1 µM throughout.
Turning to `CNc1nc2cc(-c3cc4[nH]ccc4cn3)c(C)cc2n1C` [Compound 257], the 50% inhibitory concentration (IC50) fell in the range of 1 to 10 µM in assay [1] and 0.1 to 1 µM against EHMT1.
Taken in the same sequence, the figures for `CNc1cc(C)nc(Nc2ccc(Cl)c(C(=O)Nc3ncccn3)c2)n1` [Compound 258] were 1 to 10 µM and 0.1 to 1 µM.
Taken in the same sequence, the figures for `CNc1cc(C)nc(Nc2ccc(Cl)c(C(=O)Nc3ccncn3)c2)n1` [Compound 259] were greater than 10 µM and 1 to 10 µM.
As for `CNc1cc(C)nc(Nc2ccc(Cl)c(-c3cc4c(cn3)CC(=O)N4)c2)n1` [Compound 260], the IC50 fell in the range of 1 to 10 µM in assay [1] and 0.1 to 1 µM on EHMT1.
Turning to `CNCc1cnn(-c2cc(Nc3nc(C)cc(NC)n3)ccc2Cl)c1` [Compound 262, N2-(4-chloro-3-(4-((methylamino)methyl)-1H-pyrazol-1-yl)phenyl)-N4,6-dimethylpyrimidine-2,4-diamine], the half-inhibitory concentration (IC50) (in assay [1]; against EHMT1) was less than 0.1 µM in each case.
Regarding `CCc1ccc(Nc2nc(C)cc(NC)n2)cc1-c1cc2ccncc2[nH]1` [Compound 269], the IC50 (in assay [1]; on EHMT1) was less than 0.1 µM in each case.
Regarding `CNc1cc(C)nc(Nc2ccc(C)c(-c3[nH]c4cnccc4c3C#N)c2)n1` [Compound 271], the IC50 (in assay [1]; at EHMT1) was 1 to 10 µM throughout.
